Biological target: T1, CSF1R (Mus musculus, UniProt P09581)
T1 construct: endogenous in cells
T1 sequence (P09581 20-977): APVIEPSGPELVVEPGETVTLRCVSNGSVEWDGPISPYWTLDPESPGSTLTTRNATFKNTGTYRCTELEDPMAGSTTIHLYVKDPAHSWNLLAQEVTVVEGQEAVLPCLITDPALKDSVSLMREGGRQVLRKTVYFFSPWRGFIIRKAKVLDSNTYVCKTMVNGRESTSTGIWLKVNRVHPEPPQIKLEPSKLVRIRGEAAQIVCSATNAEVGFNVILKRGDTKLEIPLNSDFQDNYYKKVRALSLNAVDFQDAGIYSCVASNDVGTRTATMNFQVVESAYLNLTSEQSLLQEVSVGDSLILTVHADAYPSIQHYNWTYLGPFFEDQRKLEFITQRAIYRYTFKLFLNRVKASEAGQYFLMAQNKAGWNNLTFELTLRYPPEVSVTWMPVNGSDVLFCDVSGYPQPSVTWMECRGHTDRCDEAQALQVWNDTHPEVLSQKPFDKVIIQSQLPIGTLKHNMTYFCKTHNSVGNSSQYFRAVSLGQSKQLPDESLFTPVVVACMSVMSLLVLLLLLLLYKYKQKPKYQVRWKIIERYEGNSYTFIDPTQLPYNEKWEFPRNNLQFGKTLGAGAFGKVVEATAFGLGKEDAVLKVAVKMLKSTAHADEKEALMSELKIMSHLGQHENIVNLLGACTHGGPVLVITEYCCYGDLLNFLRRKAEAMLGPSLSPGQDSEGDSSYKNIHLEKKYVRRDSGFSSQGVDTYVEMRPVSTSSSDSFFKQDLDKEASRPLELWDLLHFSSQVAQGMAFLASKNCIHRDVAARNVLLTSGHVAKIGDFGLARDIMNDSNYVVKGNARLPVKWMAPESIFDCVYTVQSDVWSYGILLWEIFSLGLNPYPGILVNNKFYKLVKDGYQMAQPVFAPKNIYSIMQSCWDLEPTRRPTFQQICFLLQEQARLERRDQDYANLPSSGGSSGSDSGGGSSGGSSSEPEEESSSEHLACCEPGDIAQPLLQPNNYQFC
Assay: CSF1R phosphorylation in RAW264.7 cells after CSF-1 stimulation (Western blot)
Assay type: cell-based
Conditions: 67 nM, different time points, then CSF1 10 ng/ml for 20 min
Method: FIG. 2. (a) Expression of phospho-CSF1R in RAW264.7 cells at different time points post-treatment with mCSF. (b-c) Treatment with either BLZ-945 (a current gold standard small molecule inhibitor of CSF1R) or AK750 (the formulated form of BLN101) across different time points followed by CSF-1 (10 ng/mL) stimulation for 20 minutes. After stimulation the cells were washed with cold PBS and the cell lysates were collected.
Activity Studies of Compound of Formula I • Efficacy of BLN101 vs BLZ945 on the ability to inhibit CSF1R in vitro is studied. RAW264.7 cells are treated with BLZ945 (67 nM) or BLN101 (67 nM) for different time points, at the end of which the cells were exposed to CSF1 (10 ng/ml) for 20 min. The cells were then lysed and analyzed for phosphorylated CSF1R levels. […] Efficacy of BLN101 (in formulation AK750) vs BLZ945 on increase in iNOS expression in vitro is studied. It is observed that exposure to Tumor Conditioned Media over 24 h decreases INOS levels. Measurement of the expression of iNOS in RAW264.7 cells at different time points after treatment with B-16-tumour conditioned media followed by BLZ-945 or BLN101 (as AK750 formulation) treatment across different time points. […] At different time-points, the cells are harvested and analyzed the population for M1 (MHCII+, CD86+, CD80+) or M2 (CD206+) markers using fluorescence activated cell sorting (FIG. 5d). […]

Structure (SMILES): CNC(=O)c1cc(Oc2ccc3nc(NC4CCCC[C@H]4OC(=O)CCC(=O)O[C@H]4CC[C@@]5(C)C(=CC[C@H]6[C@@H]7CC[C@H](C(C)CCCC(C)C)[C@@]7(C)CC[C@@H]65)C4)sc3c2)ccn1 (stereo in doubt) [BLN101]
- inhibition of CSF1R (phosphorylated CSF1R levels): sustained and statistically significantly greater inhibition of CSF1R as compared with BLZ945
- inhibition of CSF1R (phosphorylated CSF1R levels) (listed as BLZ101): potent inhibitor of CSF1R

— patent US10736968B2, “Cellular signalling inhibitors, their formulations and methods thereof” (INVICTUS ONCOLOGY PVT. LTD., priority 2016, dated 2020)
